Laboratory results as given in patent publication US20250195463A1, “ORGANOMETALLIC COMPLEX, CONTROLLED-RELEASE MULTI-FUNCTIONAL DRUG, PHARMACEUTICAL COMPOSITION, PROCESSES FOR THE PREPARATION THEREOF AND THEIR USE” (FACULDADE DE CIÊNCIAS DA UNIVERSIDADE DE LISBOA, priority 2022, published 2025).

Tests used:
MDA-MB-231 (FGFR−) = assay: MTT cytotoxicity assay; conditions: read-out: Cytotoxic activity expressed as IC50; Table 5; MDA-MB-231; 48 h, 37° C.
Description: By way of example, the in vitro cytotoxicity of the conjugate RuPC1, complex 4 and peptide P2 was determined in four human breast cancer cell lines with different levels of expression of the receptor FGFR, namely MDA-MB-231 (FGFR−), MCF-7 (FGFR−), SK-BR-3 (FGFR+), and MDA-MB-134-VI (FGFR+). The cytotoxicity of RuPC1 was also determined in the stated cell lines at controlled pH 6.8 and 7.4. The cytotoxicity of the complexes 5, 8, 9, and the reference complex (2,2′-bipyridyl)(triphenylphosphane)(f-cyclopentadienyl)ruthenium(II) trifluoromethanesulfonate, [RuCp(PPh3)(bipy)][CF3SO3] (TM34) was only determined in the cell line MDA-MB-231. All the cell lines were from the American Type Culture Collection (ATCC) and were cultured in Dulbecco's Modified Eagle Medium+Glutamax-I (Gibco) supplemented with 10% fetal bovine serum (FBS) and 1% antibiotics, excepting the MDA-MB-134-VI for which it was used the double amount of FBS. The cell cultures were kept in an incubator Heraeus at 37° C. under humidified atmosphere at 5% CO2. The cell viability was evaluated resorting to the MTT ([3-(4,5-dimethylthiazol-2-yl)-2,5-diphenyltetrazolium bromide]) colorimetric assay, which is based on the reduction of the tetrazolium salt to purple formazan by mitochondrial dehydrogenases in metabolically active cells. For the assays, the cells were seeded in 96-well plates (2×10^4 to 3×10^4 cells/200 μL) and allowed to adhere overnight. The compounds were first dissolved in dimethyl sulfoxide to obtain 10 mM stock solutions, further used to prepare the working solutions, at 0.1 to 100 μM, by dilution in the cell culture medium. Alternatively, for the assays at controlled pH 6.8 and 7.4, RuPC1 was first dissolved in a solution of 15% dimethyl sulfoxide/85% phosphate buffer (10 mM in water) to obtain 1.5 mM stock solutions further incubated for 48 hours at both pH values prior to be used to prepare the working solutions, at 0.1 to 50 μM, by dilution in the cell culture medium. In both cases, after continuous exposure of the cells to the compounds for 48 h at 37° C., the medium was removed and the cells were incubated with 200 μL of MTT solution (0.5 mg/mL) for 3 h. Then, the solution was discarded and the purple formazan formed by the viable cells was dissolved in 200 μL of dimethyl sulfoxide. The cell viability (%) was determined relative to the control (cells incubated without compounds) by measuring the absorbance at 570 nm on a PowerWave Xs Bio-Tek Instruments plate spectrophotometer. The respective values of the half maximal inhibitory concentration (IC50) were calculated with the software GraphPad Prism. All the compounds were tested in at least two independent experiments, each comprising six replicates per concentration.

[1] = Stability in organic medium (dimethyl sulfoxide) by UV-Vis spectroscopy; type: physicochemical; conditions: band 357-425 nm (λmax in column head)
Description: (§1) The stability of the complexes 4-11 in organic and aqueous media was evaluated over 24 h by UV-Vis spectroscopy at room temperature, in dark, on a Jasco V-660 spectrometer using quartz cuvettes (1 cm optical path length). The electronic spectra (270-900 nm) were acquired at regular periods of time (0 h, 0.25 h, 0.5 h, 0.75 h, 1 h, 2 h, 3 h, 4 h, 5 h, 6 h, 24 h) for solutions of 100% dimethyl sulfoxide (complexes 4-11) and 5% dimethyl sulfoxide/95% Dulbecco's Modified Eagle Medium (complexes 4, 5 and 8-11) or 10% dimethyl sulfoxide/90% Dulbecco's Modified Eagle Medium (complexes 6 and 7) at concentrations ranging from 7.0×10^-5 M to 3.0×10^-4 M.

[2] = Stability in aqueous medium (dimethyl sulfoxide/Dulbecco's Modified Eagle Medium) by UV-Vis spectroscopy; type: physicochemical; conditions: 10% dimethyl sulfoxide/90% Dulbecco's Modified Eagle Medium; for Relative variation of the maximum absorbance of the π→π* transitions: band 292-296 nm (λmax in column head); for Relative variation of the maximum absorbance of the charge transfer bands: band 358-400 nm (λmax in column head)
Description: as §1

O=S(=O)([O-])C(F)(F)F.[Ru+2].c1cc[cH-]c1.c1ccc(-c2ccccn2)nc1.c1ccc(P(c2ccccc2)c2ccccc2)cc1 [TM34, (2,2′-bipyridyl)(triphenylphosphane)(f-cyclopentadienyl)ruthenium(II) trifluoromethanesulfonate, reference compound]
IC50 (MDA-MB-231 (FGFR−)): 520 nM

CC(=O)C1=C[CH]([Ru-]2([PH](c3ccccc3)(c3ccccc3)c3ccccc3)[n+]3cccc4c5nccnc5c5ccc[n+]2c5c43)C=C1.O=S(=O)([O-])C(F)(F)F (stereo not shown) [compound 7]
Relative variation of the maximum absorbance of the charge transfer bands ([1]; time 0 h): 0.0% | Relative variation of the maximum absorbance of the charge transfer bands ([1]; time 0.25 h): 0.0% | Relative variation of the maximum absorbance of the charge transfer bands ([1]; time 0.5 h): −0.1% | Relative variation of the maximum absorbance of the charge transfer bands ([1]; time 0.75 h): −0.1% | Relative variation of the maximum absorbance of the charge transfer bands ([1]; time 1 h): −0.1% | Relative variation of the maximum absorbance of the charge transfer bands ([1]; time 2 h): −0.3% | Relative variation of the maximum absorbance of the charge transfer bands ([1]; time 3 h): −0.2% | Relative variation of the maximum absorbance of the charge transfer bands ([1]; time 4 h): −0.5% | Relative variation of the maximum absorbance of the charge transfer bands ([1]; time 5 h): −0.3% | Relative variation of the maximum absorbance of the charge transfer bands ([1]; time 6 h): −0.4% | Relative variation of the maximum absorbance of the charge transfer bands ([1]; time 24 h): −0.3% | Relative variation of the maximum absorbance of the π→π* transitions ([2]; time 0 h): 0.0% | Relative variation of the maximum absorbance of the charge transfer bands ([2]; time 0 h): 0.0% | Relative variation of the maximum absorbance of the π→π* transitions ([2]; time 0.25 h): 0.0% | Relative variation of the maximum absorbance of the charge transfer bands ([2]; time 0.25 h): 0.3% | Relative variation of the maximum absorbance of the π→π* transitions ([2]; time 0.5 h): 0.1% | Relative variation of the maximum absorbance of the charge transfer bands ([2]; time 0.5 h): 0.4% | Relative variation of the maximum absorbance of the π→π* transitions ([2]; time 0.75 h): 0.3% | Relative variation of the maximum absorbance of the charge transfer bands ([2]; time 0.75 h): 0.6% | Relative variation of the maximum absorbance of the π→π* transitions ([2]; time 1 h): 0.1% | Relative variation of the maximum absorbance of the charge transfer bands ([2]; time 1 h): 0.5% | Relative variation of the maximum absorbance of the π→π* transitions ([2]; time 2 h): 0.1% | Relative variation of the maximum absorbance of the charge transfer bands ([2]; time 2 h): 0.5% | Relative variation of the maximum absorbance of the π→π* transitions ([2]; time 3 h): 0.0% | Relative variation of the maximum absorbance of the charge transfer bands ([2]; time 3 h): 0.4% | Relative variation of the maximum absorbance of the π→π* transitions ([2]; time 4 h): −0.3% | Relative variation of the maximum absorbance of the charge transfer bands ([2]; time 4 h): 0.5% | Relative variation of the maximum absorbance of the π→π* transitions ([2]; time 5 h): −0.2% | Relative variation of the maximum absorbance of the charge transfer bands ([2]; time 5 h): 0.5% | Relative variation of the maximum absorbance of the π→π* transitions ([2]; time 6 h): 0.0% | Relative variation of the maximum absorbance of the charge transfer bands ([2]; time 6 h): 0.4% | Relative variation of the maximum absorbance of the π→π* transitions ([2]; time 24 h): 0.3% | Relative variation of the maximum absorbance of the charge transfer bands ([2]; time 24 h): 1.3%

CC(=O)C1=C[CH]([Ru-]2([PH](c3ccccc3)(c3ccccc3)c3ccccc3)[n+]3cccc4ccc5ccc[n+]2c5c43)C=C1.O=S(=O)([O-])C(F)(F)F (stereo not shown) [compound 6]
Relative variation of the maximum absorbance of the charge transfer bands ([1]; time 0 h): 0.0% | Relative variation of the maximum absorbance of the charge transfer bands ([1]; time 0.25 h): −0.1% | Relative variation of the maximum absorbance of the charge transfer bands ([1]; time 0.5 h): 0.2% | Relative variation of the maximum absorbance of the charge transfer bands ([1]; time 0.75 h): 0.0% | Relative variation of the maximum absorbance of the charge transfer bands ([1]; time 1 h): 0.9% | Relative variation of the maximum absorbance of the charge transfer bands ([1]; time 2 h): 2.6% | Relative variation of the maximum absorbance of the charge transfer bands ([1]; time 3 h): 1.3% | Relative variation of the maximum absorbance of the charge transfer bands ([1]; time 4 h): 1.5% | Relative variation of the maximum absorbance of the charge transfer bands ([1]; time 5 h): −0.2% | Relative variation of the maximum absorbance of the charge transfer bands ([1]; time 6 h): −0.3% | Relative variation of the maximum absorbance of the charge transfer bands ([1]; time 24 h): 0.3% | Relative variation of the maximum absorbance of the π→π* transitions ([2]; time 0 h): 0.0% | Relative variation of the maximum absorbance of the charge transfer bands ([2]; time 0 h): 0.0% | Relative variation of the maximum absorbance of the π→π* transitions ([2]; time 0.25 h): −0.4% | Relative variation of the maximum absorbance of the charge transfer bands ([2]; time 0.25 h): 0.0% | Relative variation of the maximum absorbance of the π→π* transitions ([2]; time 0.5 h): 0.4% | Relative variation of the maximum absorbance of the charge transfer bands ([2]; time 0.5 h): 0.4% | Relative variation of the maximum absorbance of the π→π* transitions ([2]; time 0.75 h): 0.3% | Relative variation of the maximum absorbance of the charge transfer bands ([2]; time 0.75 h): 0.3% | Relative variation of the maximum absorbance of the π→π* transitions ([2]; time 1 h): −0.2% | Relative variation of the maximum absorbance of the charge transfer bands ([2]; time 1 h): 0.0% | Relative variation of the maximum absorbance of the π→π* transitions ([2]; time 2 h): 1.0% | Relative variation of the maximum absorbance of the charge transfer bands ([2]; time 2 h): 0.6% | Relative variation of the maximum absorbance of the π→π* transitions ([2]; time 3 h): 2.0% | Relative variation of the maximum absorbance of the charge transfer bands ([2]; time 3 h): 0.8% | Relative variation of the maximum absorbance of the π→π* transitions ([2]; time 4 h): 2.1% | Relative variation of the maximum absorbance of the charge transfer bands ([2]; time 4 h): 0.8% | Relative variation of the maximum absorbance of the π→π* transitions ([2]; time 5 h): 1.3% | Relative variation of the maximum absorbance of the charge transfer bands ([2]; time 5 h): 0.4% | Relative variation of the maximum absorbance of the π→π* transitions ([2]; time 6 h): 1.5% | Relative variation of the maximum absorbance of the charge transfer bands ([2]; time 6 h): 0.2% | Relative variation of the maximum absorbance of the π→π* transitions ([2]; time 24 h): 5.3% | Relative variation of the maximum absorbance of the charge transfer bands ([2]; time 24 h): 1.8%
